Experimental data as given in PMC10996807 (Research Square, 2024).
Values after ≈ are worked out from the molar mass of the structure shown.

Experiments:
B. anthracis = assay: microbe, parasite or virus in culture; type: cell-based; conditions: for MIC50 / MIC90: Bacillus anthracis
[1] = system: B. anthracis Ames NR3838 spores; parameters: species or system New Zealand White rabbits; conditions: rabbit, in vivo
B. anthracis Sterne = type: cell-based, Bacillus anthracis

Compound	MIC Range (B. anthracis) [µg/mL]	MIC50 (B. anthracis) [µg/mL]	MIC90 (B. anthracis) [µg/mL]	histopathology lesions ([1]; 12.5 mg/kg)	efficacious dose in rabbits ([1]; iv) [mg/kg]	effect of washing on preformed supramolecular structures (B. anthracis Sterne)	formation of supramolecular structures (B. anthracis Sterne)
O=C(O)c1cn(C2CC2)c2cc(N3CCNCC3)c(F)cc2c1=O [Ciprofloxacin]	0.06 to 4	0.12 (≈ 0.362 µM)	0.5 (≈ 1.51 µM)				
C[C@H]1c2cccc(O)c2C(=O)C2=C(O)[C@]3(O)C(=O)C(C(N)=O)=C(O)[C@@H](N(C)C)[C@@H]3[C@@H](O)[C@@H]21 [Doxycycline]	≤0.008 to 0.12	0.03 (≈ 0.0675 µM)	0.06 (≈ 0.135 µM)				
C[C@@H](O)[C@H]1C(=O)N2C(C(=O)O)=C(SCCN=CN)C[C@H]12 [Imipenem]	0.03 to 1	0.06 (≈ 0.2 µM)	0.12 (≈ 0.401 µM)				
C[C@H]1COc2c(N3CCN(C)CC3)c(F)cc3c(=O)c(C(=O)O)cn1c23 [Levofloxacin]	0.06 to 1	0.12 (≈ 0.332 µM)	0.5 (≈ 1.38 µM)	mitigated lesions	12.5		
Lys(Bodipy FL)10-teixobactin						no apparent effect	apparent
